What was measured:
[1] = system: Saccharomyces cerevisiae diploid wild-type strain (BY4743); experiment: Growth inhibition of wild type Saccharomyces cerevisiae in YPD medium (96-well, OD600); assay type: cell-based
Procedure: (§1) Figure 5 Structure-activity studies of hypoculoside. (A) Wild type strain (BY4743), vps35Δ, pep8Δ, vps20Δ, vps27Δ and vps36Δ strains were grown in YPD medium in the presence of hypoculoside or hypoculine at the indicated concentrations. Normalized growth at the different concentrations of hypoculoside and hypoculine tested after 24 hours of incubation at 30 °C is plotted for each strain. (B) Wild type strain (BY4743), vps35Δ, pep8Δ, vps20Δ, vps27Δ and vps36Δ strains were grown in YPD medium in the presence of hypoculoside or phytosphingosine or dihydrosphingosine at the indicated concentrations. Normalized growth at the different concentrations of hypoculoside, phytosphingosine and dihydrosphingosine tested after 24 hours of incubation at 30 °C is plotted for each strain.
Susceptibility of Candida albicans strain SC5314 to hypoculoside and amphotericin B was determined by a broth microdilution assay using Clinical Laboratory Standards Institute (CLSI) guidelines. Cells grown to exponential phase in YPD medium (1% Yeast extract, 2% Bacto peptone and 2% glucose) were harvested, washed and resuspended in RPMI 1640 medium at a density of 2×10^3 cells/mL. RPMI 1640 medium with L-glutamine without sodium bicarbonate (Sigma) was buffered with 0.165 M morpholinepropanesulfonic acid (MOPS) to a pH of 7.0. Two-fold dilutions of hypoculoside and amphotericin B were prepared such that final concentration of DMSO was 1% in all cultures. Cell suspension was distributed in microtiter plate (200 µL/well) and incubated at 35 °C with 220 rpm for 24 h. The Saccharomyces cerevisiae diploid wild-type strain (BY4743) was used for determining the Inhibitory Concentration (IC) of hypoculoside. Frozen yeast cells were allowed to recover on YPD agar plates and grown in YPD medium for nine generations (OD600 nm ≤ 2). Cells were diluted to OD600 nm of 0.0625 in YPD medium. 200 μL of the diluted yeast culture was transferred into the 96-well microtiter plate having 2-fold serially diluted concentrations of hypoculoside. Cells were incubated in a microplate reader for 16–24 hours at 30 °C with shaking. IC of hypoculoside was computed by comparing the growth of treated versus control cells.

[2] = system: vps35Δ, pep8Δ, vps20Δ, vps27Δ and vps36Δ strains; experiment: Single-mutant sensitivity growth assay of deletion strains in YPD medium; assay type: cell-based, Saccharomyces cerevisiae
Procedure: Figure 3 Homozygous profiling of hypoculoside in Saccharomyces cerevisiae. (A) logFC (Fitness Coefficient) was plotted against P-value for the 3702 mutants that were analyzed by HOP. The more negative the logFC value of a mutant, more sensitive is the mutant to hypoculoside. Mutants that have logFC < −0.5 and P-value < 0.05 are indicated by red dots and the remaining strains are indicated as blue dots. For the sake of clarity, gene names of only a subset of the top hits are indicated in the plot. (B) Wild type strain BY4743 and 24 deletion strains that were sensitive to hypoculoside in the HOP assay, were grown in the YPD medium in the presence of either DMSO or hypoculoside at different concentrations (0, 0.6, 1.3, 2.7 and 5.5 µM). Normalized growth at the different concentrations of hypoculoside tested after 24 hours of incubation at 30 °C is plotted for each strain.
To test the validity of our HOP data, we first identified 336 ‘hypoculoside-sensitive’ mutants (Supplementary Table S1) that had at least a 1.4-fold inhibitory effect on their growth rate (i.e. logFC ≤ −0.5) with a P-value ≤ 0.05. From the list of 336 mutants, we chose 24 mutants that represent different Gene Ontology categories (see below) and tested their sensitivity to hypoculoside. Eighteen of the total 24 mutants were sensitive to hypoculoside confirming the HOP data (Fig. 3B). We also tested mutants that were predicted to be resistant to hypoculoside (positive logFC ≥ 0.5 and P-value ≤ 0.05). But none of them were resistant to hypoculoside in comparison to wild type strain in the single-mutant sensitivity assays (data not shown).
as §1

[3] = system: Wild type yeast cells; experiment: FM 4-64FX fluorescence microscopy (endocytosis / membrane integrity); assay type: cell-based, Saccharomyces cerevisiae; conditions: 5.4 µM pre-treatment for 30 minutes
Procedure: To test if hypoculoside affects endocytosis, we used a dye FM 4–64FX which is a fixable analog of the FM 4-64 membrane stain. We incubated logarithmically growing yeast cells with either DMSO or hypoculoside for 30 minutes and then washed the cells off the compound and resuspended them in fresh growth medium containing FM 4-64FX to visualize endocytosis and vacuolar structure. In DMSO pre-treated cells, FM 4-64FX first stained the plasma membrane (Fig. 8A) at t = 0 and stained the cytoplasmic structures after 30′ indicating its uptake by endocytosis (Fig. 8A).
Figure 8 Hypoculoside but not hypoculine disrupts the membrane integrity of yeast cells. (A) Wild type yeast cells pre-treated with either DMSO or hypoculoside (5.4 μM) were exposed to FM 4-64FX. Uptake of FM 4-64FX after 0′, 30′ and 120′ was analyzed by fluorescence microscopy of fixed cells. […] They were then treated with propidium iodide (PI) and percentage of PI-staining cells was assayed by fluorescence microscopy. Representative images of cells visualized by bright field and fluorescence microscopy are shown along with quantification of PI-staining cells (N = 100 cells) in (C).
Labelling of yeast cells with FM4-64FX (Invitrogen) was done as previously reported. […] The images were acquired using an inverted fluorescence microscope ZEISS LSM 5 LIVE (Carl Zeiss, Oberkochen, Germany).

For `CC(N)C(O)CCCCCCCCCCCCCCCCCCC(O)C(C)OC1OC(CO)C(O)C(O)C1O` (stereo not shown) [hypoculoside, Hypoculoside], the “concentration that inhibited the growth of wild type cells” value ([1]; BY4743, YPD, 24 hours at 30 °C (Fig. 5A)) was 11 µM, the IC50 ([1]; Saccharomyces cerevisiae, read-out: IC50 for growth of Saccharomyces cerevisiae cells) was 7.2 µM and the inhibition at 5.5 µM ([1]; Saccharomyces cerevisiae, 5.5 µM, YPD, 24 hours at 30 °C) was 10%. For the same compound, the “inhibition of growth of the vps35, pep8, vps20, vps27 and vps36 mutants” value ([2]; 5.5 µM, YPD, 24 hours at 30 °C) was “completely inhibited”, the “concentration that inhibited the growth of the vps35, pep8, vps20, vps27 and vps36 mutants” value ([2]; YPD, 24 hours at 30 °C (Fig. 5A)) was 5.5 µM and the “toxicity to vesicular trafficking mutants in comparison to the wild type strain” value ([2]; several vesicular trafficking mutants) was “two-fold more toxic”. The “FM 4-64FX staining pattern of pre-treated cells” value [3] was “stained the cytoplasmic contents even at t = 0”.
